Results on one compound are retold here after patent publication US12685725B2, “Pridopidine for the treatment of mitochondrial-associated diseases and disorders and endoplasmic reticulum (ER) stress” (PRILENIA NEUROTHERAPEUTICS LTD., priority 2019, dated 2026).

Test [1] deals with WT and YAC128 striatal neurons. The note with it: 1 μM, 24 h. As for the experimental part: To obtain pure cortical and striatal neurons, tissue was micro-dissected in HBSS supplemented with 0.3% fatty acid free BSA (Sigma-Aldrich, catalog no: A8806). Tissue from embryos with the same genotype were pooled and digested with 0.003% trypsin in HBSS, then mechanically digested. […] (Sigma-Aldrich, catalog no: T9128) was used to block the trypsin. […] Cultures were incubated at 37° C. with 5% CO2. After 3 days in vitro (DIV) half of the medium was replaced with fresh supplemented Neurobasal medium containing 5-fluoro-2′-deoxyuridine (5-FdU, 5 μM final concentration in the medium; Sigma-Aldrich, catalog no: F0503) to reduce dividing non-neuronal cells. At DIV 7 half of the medium was again replaced with fresh, and cells were used at DIV12.
The ultrathin sections were prepared using Leica Ultracut UCT (Leica, Vienna, Austria) and contrasted with uranyl acetate and lead citrate. […] All mitochondria of 6-7 different cells were snapped per condition and per independent experiment. Number of mitochondria-ER contacts sites (MERCS), MERCS length, ER and mitochondria profile areas, ER width and mitochondria aspect ratio (the ratio between the major and minor axes of mitochondria) were quantified. Number of MERCS per mitochondria was obtained by dividing number of MERCS per number of mitochondria profiles. Percentage of mitochondria surface covered by ER was measured by dividing the MERCS length by mitochondria perimeter and multiplying by 100. MERCS were considered when the distance between ER and mitochondria <40 nm.

Another test has as its system YAC128 mice. Conditions: 30 mg/kg/day oral gavage 45 days, vs vehicle-treated HD mice, p=0.0270. How it is done:
(§1) 1.5-month-old WT and hemizygous YAC128 mice (males and females in equal proportion) were divided into four groups. […] Mice were divided 4 animals per cage enriched in corn-husk nesting material and paper rolls, each cage representing one individual experiment, for a total of 9 animals per group. Pridopidine was dissolved in deionized sterile water. Animals were weighed every week and the volume of treatment adjusted accordingly. Mice were behaviorally tested in rotarod immediately before commencing treatment and on the day before finishing treatment. Tests were conducted blindly at a set time during the day. Mice were sacrificed 24 h after administration of the final pridopidine dose, and mitochondria isolated from the striatum.

Test [2] relates to S1R-silenced HD lymphoblasts. The note with it: 5 μM, 24 h. As for the experimental part: S1R depletion was induced by treating with S1R-directed siRNA duplexes (Origene, cat no: SR426072). siRNA transfection was performed in antibiotic-free growth medium using the Polyplus JETPRIME transfection protocol as per manufacturer's instructions (Polyplus). Forty-eight hours after transfection the cells were subjected to pridopidine treatment and/or oxidative stress challenge. S1R knockdown efficiency was determined by Immunoblot analysis.
TMRE assay: Primary neurons and lymphoblasts in suspension were cultured in 6-well plates.

Test [3] relates to isolated YAC128 striatal mitochondria. Conditions: wild-type mice, 30 mg/kg/day oral gavage 45 days. As for the experimental part: In isolated mitochondria, H2O2 levels were measured using the Amplex Red-horseradish peroxidase method. […] The homogenate was then dispensed into a 96-multiwell plate and fluorescence was measured in a spectrofluorometer microplate reader by excitation at 570 nm and emission at 585 nm every 30 s, for 20 min. After 10 min of basal reading, mitochondria were challenged with antimycin A (2 μM). Results were analyzed as time-dependent changes in fluorescence.
as §1
The final homogenate was then centrifuged at 1,100×g for 2 min, at 4° C. […] Protein content of isolated mitochondria was quantified by Bio-Rad assay (Bio-Rad, catalog no. 5000006).

A further test relates to HD human lymphoblasts. Conditions: pridopidine 24 h prior to H2O2 6 h, p=0.0016. How it is done:
Cell viability was assessed on lymphoblasts using the MTS assay, a measure of mitochondrial function and cell survival. The assay was performed according to the manufacturer's instructions (Promega, catalog no. G1112). In the day of experiment, MTS reagent was added to the culture media (1:10) and incubated at 37° C. for 4 hours. Then, lymphoblasts were centrifuged at 145×g for 5 min and media was collected. The absorbance of the formazan dye produced by viable cells was quantified in the medium at OD=490 nm.

[4] abbreviates: YAC128 striatal neurons, p<0.0001.

Where two headings read alike, the source gives them in different places.

Turning to `CCCN1CCC(c2cccc(S(C)(=O)=O)c2)CC1` [Pridopidine, 4-[3-(methylsulfonyl)phenyl]-1-propyl-piperidine], the “percent of mitochondrial surface in contact with ER” value in test [1] (WT neurons, p=0.0339) is recorded as “significantly increases the percent of mitochondrial surface in contact with ER”. Besides, the “proportion of elongated mitochondria (aspect ratio)” value in test [1] (Y128 striatal neurons, p=0.0044) was “increases the proportion of elongated mitochondria in Y128 striatal neurons to WT levels”. In test [1] (YAC128 neurons, p<0.0001), the ER width entry is listed as “restores the abnormal ER width”. Moreover, in test [1] (setting [4]), the “number of MERCS per mitochondria” value is given as “increasing the number of MERCS per mitochondria”; the “percent of mitochondrial surface in contact with ER” value is “increasing the number of MERCS per mitochondria and the percent of mitochondrial surface in contact with ER”. For the same compound, in the test with YAC128 mice, the “motor performance, latency to fall in accelerated rotarod” value is “significant motor improvement”. The “mitochondrial membrane potential signal after H2O2 stimulation” value in test [2] (S1R+/+ cells) is on record as “increases TMRM signal after H2O2 stimulation”. Also, the “effect on mitochondrial membrane potential” value in test [2] (absence of the S1R (silenced ~83%), p<0.0001) is “abolished”. The “mitochondrial H2O2 levels” value in test [3] is recorded as “does not affect”. For the same compound, the “increase in cell viability” value in the test with HD human lymphoblasts is on record as “approximately 50%”.
